# Test results taken from US11597708B2, “Inhibitors of heat shock factors and uses thereof” (HSF Pharmaceuticals SA, priority 2016, dated 2023).
# Assays:
# [1] = tested on: hsp70b promoter-driven fluc gene; experiment: Corroborating experiment in a cell line containing an hsp70b promoter-driven fluc gene; assay type: cell-based; conditions: data not shown
# Method: The compounds of the afore-mentioned biased sublibrary were screened in cell line Z74 at 12.5 and 25 μM concentrations. Typically, Z74 cultures in 96-well plates were exposed to compound or vehicle for 2 h, heat-treated at 43.0° C. for 30 min, and incubated further for 6 h at 37° C. to allow for accumulation of the luciferases. RLuc and FLuc activities were determined, typically using the Dual-Glo® Luciferase Assay System (Promega Corp., Madison, Wis.), and reading luciferase light counts in a Wallac Microbeta Trilux-1450 Luminometer (PerkinElmer, Waltham, Mass.). IHSF 001 was one of two library compounds that inhibited RLuc expression but not FLuc expression in heat-treated Z74 cells (Table 1; FIG. 2A). Therefore, IHSF 001 is an inhibitor of HSF1 function that specifically acts through the HSF1 DNA-binding domain. […] A corroborating experiment utilized a cell line containing an hsp70b promoter-driven fluc gene. […] IHSF 001 is (E)-ethyl 4-oxo-4-(thiazol-2-ylamino)but-2-enoate. The compound can be obtained from commercial sources (e.g., AKE-PB-90340538, Akos).
# MM.1S = experiment: Alamar Blue viability assay; assay type: cell-based, human
# Method: FIG. 5. (A) Viability of HeLa cell cultures mock-exposed (−) or exposed to the indicated concentrations of compounds 001, 058 or 115. (B) Viability of MM.1S cells mock-exposed (−) or exposed to the indicated concentrations of compound 115. Viability was assayed after 96 hours of exposure using an Alamar Blue assay.
# Cultures of HeLa cells were exposed for 96 hours to different concentrations of IHSF 001, 058 and 115, and viability was assessed using an Alamar Blue assay. It is noted that this standard assay examines attached cells only. This subject will be discussed in more detail below. […] The relative cytotoxicity of the compounds appears to parallel their respective activities as inhibitors of HSF1 function (inhibition of RLuc expression in Z74 cells). We next examined the viability of different human cancer cell lines subsequent to a 96-hour exposure to compound 115 (Table 3). HSF1 was reported as being required for optimal p21 expression and for p53-mediated cell cycle arrest in response to genotoxins. Logan, I. R. et al. (2009) Nucleic Acids Res. 37: 2962-2971. […] Cell lines of different p53 status were included in the experiments in order to find out whether sensitivity to IHSF 115 was related to p53 status. […] No effect of p53 status could be discovered. It is noted that a number of additional HSF inhibitors of the present disclosure were tested and found to effectively reduce the viability of human cancer cells.
# HeLa cells [2] = experiment: Flow cytometric analysis of DNA (sub-G0/G1 fraction); assay type: cell-based, human; conditions: 12.5 or 25 μM for up to 24 h
# Method: (§1) FIG. 6. (A) HeLa cell cultures were mock-exposed (−) or exposed to the indicated concentrations of compound 115 for 24 (left panel) or 96 (right panel) hours. Cell viability of total cultures, floating cells and attached cells was assayed using an Alamar Blue assay. (B) HeLa cell cultures were mock-exposed (−) or exposed to the indicated concentrations of compound 115 for 15-96 hours. Trypan Blue dye exclusion was employed to determine numbers of live cells (left panel) and relative levels of necrotic cells (right panel). (C) HeLa cell cultures were mock-exposed (−) or exposed to the indicated concentrations of compound 115 for 6 and 24 h. Shown are relative levels of early apoptotic cells (annexin-positive, 7 aminoactinomycin D-negative). (D) Flow cytometric analysis of DNA of HeLa cell cultures mock-exposed (−) or exposed to the indicated concentrations of compound 115 for 6, 15 and 24 hours. Relative levels of apoptotic cells are indicated.
# (§2) Further studies were aimed at finding out whether IHSF-exposed cancer cells were only growth-arrested or were actually killed and, if they were killed, by what mechanism. […] The viability signal (in whole cultures and, more dramatically, when only attached cells were analyzed) decreased as a function of IHSF concentration. […] Stained (necrotic) and unstained (live) cells were counted (FIG. 6B). […]
# HSF1-ATF1 interaction = target: T1, HSF1-ATF1 interaction (Homo sapiens, UniProt Q00613); experiment: Anti-FLAG immunoprecipitation of FLAG-tagged HSF1 and WB (HSF1-ATF1 interaction); assay type: cell-based; conditions: HeLa-derived line expressing FLAG-tagged HSF1, heat-treated 30 min at 43° C.
# T1 construct: expressed in transfected cells; host or cells: HeLa-derived cell line stably expressing HSF1-FLAG
# T1 sequence (Q00613 whole entry): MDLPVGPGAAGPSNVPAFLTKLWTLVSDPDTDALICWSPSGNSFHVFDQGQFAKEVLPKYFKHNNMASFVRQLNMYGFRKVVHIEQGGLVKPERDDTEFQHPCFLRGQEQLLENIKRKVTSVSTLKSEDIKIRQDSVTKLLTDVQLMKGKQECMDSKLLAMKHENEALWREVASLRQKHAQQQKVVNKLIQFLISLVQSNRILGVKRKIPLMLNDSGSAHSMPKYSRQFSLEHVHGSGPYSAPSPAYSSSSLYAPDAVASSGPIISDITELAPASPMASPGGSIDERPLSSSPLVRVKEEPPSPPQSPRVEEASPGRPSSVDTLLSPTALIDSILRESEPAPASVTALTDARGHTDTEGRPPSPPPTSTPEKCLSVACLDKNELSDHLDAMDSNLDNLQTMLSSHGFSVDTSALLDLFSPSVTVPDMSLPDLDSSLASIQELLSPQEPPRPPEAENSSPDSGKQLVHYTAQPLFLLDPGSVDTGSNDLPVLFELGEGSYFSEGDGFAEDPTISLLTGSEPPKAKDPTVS
# Description: Recruitment of HSF1 to target promoters in response to a stress is mediated by ATF1/CREB. Takii, R. et al. (2015) Mol. Cell. Biol. 35: 11-25. ATF1/CREB regulates the stress-induced HSF1 transcription complex that includes BRG1 chromatin-remodeling complex and p300/CBP. The former complex promotes an active chromatin state in the promoters, whereas p300/CBP accelerates the shutdown of HSF1 DNA-binding activity as well as stabilizes HSF1 against proteasomal degradation during recovery from stress. To assess the effects of the IHSF on the assembly of the transcription complex, use was made of a HeLa-derived cell line that stably expresses a C-terminally FLAG-tagged HSF1. Cultures were heat-treated for 30 min at 43° C. in the presence or absence of IHSF 115, extracts were prepared, and tagged HSF1 was immunoprecipitated using an anti-FLAG antibody.
# HeLa cells [3] = experiment: Annexin V/7 aminoactinomycin D double staining assay; assay type: cell-based, human; conditions: 25 μM for up to 24 hours
# Method: as §1, §2
Compound,FLuc expression in hsp70b promoter-driven fluc line [1],"concentration at which complete loss of viability of MM.1S cells occurred (MM.1S; 96 hours exposure, Alamar Blue)","EC50 (MM.1S; Homo sapiens, MM1.S, MM.1S, Multiple myeloma, P53 Wt, 96-hour exposure)","concentration at which complete loss of viability of MM.1S cells occurred, in some experiments (MM.1S; in some experiments already)",sub-G0/G1 fractions (% of cells included) (HeLa cells [2]),"HSF1-ATF1 interaction (co-immunoprecipitation, WB) (HSF1-ATF1 interaction)",live cells annexin V-stained (HeLa cells [3])
"CCOC(=O)/C=C/C(=O)Nc1nccs1 [IHSF 001, (E)-ethyl 4-oxo-4-(thiazol-2-ylamino)but-2-enoate]",inhibit FLuc expression,–,–,–,–,–,–
"CN(C(=O)/C=C/C1=NCCCO1)c1ncc(-c2cccnc2)s1 [IHSF 115, (E)-3-(5,6-Dihydro-4H-[1,3]oxazin-2-yl)-N-methyl-N-(5-pyridin-3-yl-thiazol-2-yl)-acrylamide]",–,6.25 µM,1.7 µM,3.125 µM,≤ 6%,dramatically reduced,no more than 15%
